Key:
[1] = biological target: T1, Tyrosine-protein kinase JAK2 (Homo sapiens, UniProt O60674); assay: Inhibition of JAK2 using 2 mM ATP as a substrate
[2] = biological target: T1, Tyrosine-protein kinase JAK2; assay: Inhibition of JAK2 using 5 mM ATP as a substrate
[3] = biological target: T2, Tyrosine-protein kinase JAK3 (Homo sapiens, UniProt P52333); assay: Inhibition of JAK3 using 5 mM ATP as a substrate
T2 sequence (P52333 whole entry): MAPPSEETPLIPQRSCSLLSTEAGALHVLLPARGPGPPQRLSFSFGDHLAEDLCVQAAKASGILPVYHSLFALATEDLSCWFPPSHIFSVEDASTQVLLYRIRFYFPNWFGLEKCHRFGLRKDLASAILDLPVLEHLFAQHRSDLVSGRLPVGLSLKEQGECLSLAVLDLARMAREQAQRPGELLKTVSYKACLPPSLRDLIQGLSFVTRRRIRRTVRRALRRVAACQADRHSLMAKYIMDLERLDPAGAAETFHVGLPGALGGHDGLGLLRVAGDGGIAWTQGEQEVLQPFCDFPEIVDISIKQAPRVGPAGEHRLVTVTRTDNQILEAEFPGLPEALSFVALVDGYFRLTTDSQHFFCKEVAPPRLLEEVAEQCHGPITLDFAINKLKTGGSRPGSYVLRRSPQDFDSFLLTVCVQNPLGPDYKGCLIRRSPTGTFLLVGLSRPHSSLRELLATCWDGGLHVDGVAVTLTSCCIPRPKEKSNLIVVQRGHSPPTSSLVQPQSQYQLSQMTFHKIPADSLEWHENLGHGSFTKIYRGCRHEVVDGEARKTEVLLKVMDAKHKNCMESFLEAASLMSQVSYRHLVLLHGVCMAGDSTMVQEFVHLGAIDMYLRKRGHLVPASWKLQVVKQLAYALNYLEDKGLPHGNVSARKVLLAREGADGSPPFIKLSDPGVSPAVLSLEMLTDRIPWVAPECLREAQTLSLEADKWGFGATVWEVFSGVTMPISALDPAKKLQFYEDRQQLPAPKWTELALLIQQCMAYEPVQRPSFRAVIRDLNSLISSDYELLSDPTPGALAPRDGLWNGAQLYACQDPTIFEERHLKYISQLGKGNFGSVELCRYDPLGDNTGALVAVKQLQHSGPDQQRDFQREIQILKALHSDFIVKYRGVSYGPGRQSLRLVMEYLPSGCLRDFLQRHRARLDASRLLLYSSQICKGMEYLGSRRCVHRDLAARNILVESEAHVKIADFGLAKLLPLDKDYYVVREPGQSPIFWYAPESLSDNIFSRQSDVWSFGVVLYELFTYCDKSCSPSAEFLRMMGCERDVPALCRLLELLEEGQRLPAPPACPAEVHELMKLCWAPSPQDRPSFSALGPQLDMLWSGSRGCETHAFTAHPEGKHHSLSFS

[4] = biological target: T1, Tyrosine-protein kinase JAK2; assay: Inhibition of Tel-fused JAK2
[5] = biological target: Cyclin-dependent kinase 2 (Homo sapiens, UniProt P24941); assay: Inhibition of CDK2
[6] = biological target: T3, Tyrosine-protein kinase JAK3 (Homo sapiens) (UniProt P52333); assay: Inhibition of Tel-fused JAK3
T3 sequence (whole entry): T2 sequence (P52333 whole entry)

[7] = biological target: Aurora kinase B (Homo sapiens, UniProt Q96GD4); assay: Inhibition of Aurora B
Aurora kinase B, sequence (Q96GD4 whole entry): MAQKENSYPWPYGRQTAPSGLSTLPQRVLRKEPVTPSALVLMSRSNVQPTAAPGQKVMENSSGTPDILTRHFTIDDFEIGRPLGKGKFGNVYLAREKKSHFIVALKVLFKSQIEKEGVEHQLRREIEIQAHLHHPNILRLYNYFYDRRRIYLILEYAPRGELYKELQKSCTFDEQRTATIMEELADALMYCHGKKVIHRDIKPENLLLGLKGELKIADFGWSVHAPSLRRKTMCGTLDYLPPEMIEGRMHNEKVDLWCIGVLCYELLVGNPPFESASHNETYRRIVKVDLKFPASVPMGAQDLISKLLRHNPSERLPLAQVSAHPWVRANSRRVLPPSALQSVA

[8] = biological target: High affinity nerve growth factor receptor (Homo sapiens, UniProt P04629); assay: Inhibition of TRKA
High affinity nerve growth factor receptor, sequence (P04629 whole entry): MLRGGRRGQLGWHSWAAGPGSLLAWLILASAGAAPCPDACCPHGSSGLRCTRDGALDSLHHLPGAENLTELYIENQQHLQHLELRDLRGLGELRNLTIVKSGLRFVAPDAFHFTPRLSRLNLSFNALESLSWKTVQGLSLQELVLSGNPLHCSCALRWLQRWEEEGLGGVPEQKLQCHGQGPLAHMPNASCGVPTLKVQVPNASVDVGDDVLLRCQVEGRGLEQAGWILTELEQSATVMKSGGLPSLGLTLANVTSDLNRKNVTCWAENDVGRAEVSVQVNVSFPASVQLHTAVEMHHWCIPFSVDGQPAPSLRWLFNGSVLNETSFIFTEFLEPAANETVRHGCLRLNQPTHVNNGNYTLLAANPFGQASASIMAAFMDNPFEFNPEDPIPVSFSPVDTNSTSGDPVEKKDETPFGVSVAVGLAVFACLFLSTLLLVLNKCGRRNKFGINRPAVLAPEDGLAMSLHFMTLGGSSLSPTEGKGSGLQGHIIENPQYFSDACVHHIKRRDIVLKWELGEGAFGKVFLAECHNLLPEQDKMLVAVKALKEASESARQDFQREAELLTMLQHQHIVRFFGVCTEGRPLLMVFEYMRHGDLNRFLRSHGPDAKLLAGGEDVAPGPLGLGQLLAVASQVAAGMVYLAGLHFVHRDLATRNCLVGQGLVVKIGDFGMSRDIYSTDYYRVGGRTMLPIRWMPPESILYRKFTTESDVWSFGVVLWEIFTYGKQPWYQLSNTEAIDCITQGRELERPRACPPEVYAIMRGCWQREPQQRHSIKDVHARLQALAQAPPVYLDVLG

[9] = Clearance in Wistar rat at 10 mg/kg, po and 3 mg/kg, iv; assay type: ADME, organism-based; conditions: in vivo
[10] = Volume of distribution at steady state in Wistar rat at 10 mg/kg, po and 3 mg/kg, iv; assay type: ADME, organism-based; conditions: in vivo, read-out: Vdss
[11] = Half life Wistar rat at 10 mg/kg, po and 3 mg/kg, iv; assay type: ADME, organism-based; conditions: in vivo
[12] = Clearance in Beagle dog at 10 mg/kg, po and 3 mg/kg, iv; assay type: ADME, organism-based, Canis lupus familiaris; conditions: in vivo
[13] = Volume of distribution at steady state in Beagle dog at 10 mg/kg, po and 3 mg/kg, iv; assay type: ADME, organism-based, Canis lupus familiaris; conditions: in vivo, read-out: Vdss
[14] = Half life Beagle dog at 10 mg/kg, po and 3 mg/kg, iv; assay type: ADME, organism-based, Canis lupus familiaris; conditions: in vivo
[15] = system: Mus musculus; assay: Ex vivo inhibition of STAT5 phosphorylation in NCr mouse implanted with Tel-fused JAK expressing mouse BAF3 cells at 5 mg/kg, po after 2 hrs; assay type: functional; conditions: BaF3, 2 h
[16] = system: Mus musculus; assay: Ex vivo inhibition of STAT5 phosphorylation in NCr mouse implanted with Tel-fused JAK expressing mouse BAF3 cells at 10 mg/kg, po after 2 hrs; assay type: functional; conditions: BaF3, 2 h
[17] = system: Mus musculus; assay: Ex vivo inhibition of STAT5 phosphorylation in NCr mouse implanted with Tel-fused JAK expressing mouse BAF3 cells at 25 mg/kg, po after 2 hrs; assay type: functional; conditions: BaF3, 2 h
[18] = system: Mus musculus; assay: Ex vivo inhibition of STAT5 phosphorylation in NCr mouse implanted with Tel-fused JAK expressing mouse BAF3 cells at 25 mg/kg, po after 4 hrs; assay type: functional; conditions: BaF3, 4 h

T1 sequence (O60674 whole entry): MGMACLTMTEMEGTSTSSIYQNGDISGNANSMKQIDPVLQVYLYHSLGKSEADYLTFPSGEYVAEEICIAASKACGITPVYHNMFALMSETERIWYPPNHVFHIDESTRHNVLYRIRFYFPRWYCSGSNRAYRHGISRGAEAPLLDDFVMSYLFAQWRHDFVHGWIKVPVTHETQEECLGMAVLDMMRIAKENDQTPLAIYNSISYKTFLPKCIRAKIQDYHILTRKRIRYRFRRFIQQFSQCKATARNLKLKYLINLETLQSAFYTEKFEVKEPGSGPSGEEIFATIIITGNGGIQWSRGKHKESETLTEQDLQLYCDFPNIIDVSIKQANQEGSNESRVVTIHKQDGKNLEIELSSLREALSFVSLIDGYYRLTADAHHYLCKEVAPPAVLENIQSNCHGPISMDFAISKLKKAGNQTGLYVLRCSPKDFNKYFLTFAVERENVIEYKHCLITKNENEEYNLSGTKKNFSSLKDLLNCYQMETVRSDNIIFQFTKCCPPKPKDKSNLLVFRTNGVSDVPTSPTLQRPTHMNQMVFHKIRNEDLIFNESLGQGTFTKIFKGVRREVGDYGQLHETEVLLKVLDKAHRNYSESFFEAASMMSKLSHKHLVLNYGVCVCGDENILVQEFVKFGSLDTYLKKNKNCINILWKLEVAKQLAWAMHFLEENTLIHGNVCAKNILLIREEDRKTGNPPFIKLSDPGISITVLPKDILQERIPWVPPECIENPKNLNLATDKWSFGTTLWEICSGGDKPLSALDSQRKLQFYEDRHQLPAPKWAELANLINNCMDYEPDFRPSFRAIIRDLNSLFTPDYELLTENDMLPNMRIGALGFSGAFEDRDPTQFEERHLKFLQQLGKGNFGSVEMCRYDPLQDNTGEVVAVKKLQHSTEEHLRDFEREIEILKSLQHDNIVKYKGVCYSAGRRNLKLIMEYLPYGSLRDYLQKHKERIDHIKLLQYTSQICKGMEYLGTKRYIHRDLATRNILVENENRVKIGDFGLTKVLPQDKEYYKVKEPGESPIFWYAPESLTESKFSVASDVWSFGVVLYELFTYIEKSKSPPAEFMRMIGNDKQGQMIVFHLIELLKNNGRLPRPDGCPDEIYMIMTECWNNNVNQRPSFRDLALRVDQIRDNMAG

SMILES | IC50 [1] | IC50 [2] | IC50 [3] | further results
COc1cc(Nc2cncc(N[C@@H](C)c3ccc(F)cn3)n2)[nH]n1 | 0.003 µM | 0.008 µM | – | –
Cc1cc(Nc2cncc(N[C@@H](C)c3ncc(F)cn3)n2)n[nH]1 | < 0.003 µM | 0.003 µM | 13.7 µM | –
Cc1cc(Nc2nc(O[C@@H](C)c3ccc(F)cn3)c(C#N)nc2C)[nH]n1 | 0.004 µM | 0.142 µM | > 30 µM | –
Cc1cc(Nc2cnc(C#N)c(NC(C)c3ccc(F)cn3)n2)n[nH]1 (stereo unspecified) | < 0.003 µM | 0.005 µM | 12.8 µM | –
Cc1cc(Nc2cncc(N[C@@H](C)c3ccc(F)cn3)n2)[nH]n1 | < 0.003 µM | 0.003 µM | 11.7 µM | –
Cc1cc(Nc2nc(N[C@@H](C)c3ccc(F)cn3)cnc2C)[nH]n1 | < 0.003 µM | 0.018 µM | – | –
CC(C)Oc1cc(Nc2cncc(N[C@@H](C)c3ccc(F)cn3)n2)[nH]n1 | 0.01 µM | 0.421 µM | – | –
Cc1cc(Nc2cnc(C#N)c(N[C@@H](C)c3ncc(F)cn3)n2)n[nH]1 | < 0.003 µM | 0.006 µM | – | GI50 [4]: 0.16 µM; IC50 [5]: 0.05 µM
Cc1cc(Nc2cnc(C#N)c(N[C@@H](C)c3ccc(F)cn3)n2)n[nH]1 | < 0.003 µM | 0.003 µM | 5.17 µM | GI50 [4]: 0.06 µM; GI50 [6]: 1.1 µM; IC50 [5]: 0.03 µM; IC50 [7]: 0.68 µM; IC50 [8]: 0.67 µM; clearance [9]: 1.5 L/h/kg; Vd [10]: 2.2 L/kg; half-life [11]: 1.2 h; inhibition in vivo at 5 mg/kg [15]: > 80%; inhibition in vivo at 10 mg/kg [16]: > 90%; inhibition in vivo at 25 mg/kg [17]: > 90%; inhibition in vivo at 25 mg/kg [18]: > 90%
C[C@H](Nc1nc(Nc2cc(C3CC3)n[nH]2)cnc1C#N)c1ccc(F)cn1 | < 0.003 µM | 0.025 µM | 26.9 µM | –

Now from value to molecule, other results behind:

IC50 [1] | IC50 [2] | IC50 [3] | SMILES | further results
0.075 µM | 0.907 µM | – | Cc1cc(Nc2nc(N[C@H](C)c3ccc(F)cn3)c(C#N)nc2C)n[nH]1 | –
< 0.003 µM | 0.011 µM | – | Cc1cc(Nc2nc(N[C@@H](C)c3ccc(F)cn3)c(C#N)nc2C)n[nH]1 | GI50 [4]: 0.11 µM; IC50 [5]: 0.46 µM
0.108 µM | 4.67 µM | > 30 µM | Cc1cc(Nc2nc(O[C@H](C)c3ccc(F)cn3)c(C#N)nc2C)[nH]n1 | –
0.05 µM | 10.4 µM | > 30 µM | Cc1cc(Nc2nc(N[C@H](C)c3ncc(F)cn3)c(C#N)nc2C)[nH]n1 | –
< 0.003 µM | 0.047 µM | – | Cc1cc(Nc2nc(NC(C)c3ccc(F)cn3)c(C#N)nc2C)n[nH]1 (stereo unspecified) | –
< 0.003 µM | 0.087 µM | 26.5 µM | Cc1cc(Nc2nc(N[C@@H](C)c3ncc(F)cn3)c(C#N)nc2C)n[nH]1 | GI50 [4]: 0.22 µM; GI50 [6]: 7.4 µM; IC50 [5]: 0.41 µM; IC50 [7]: 0.85 µM; IC50 [8]: 1.48 µM; clearance [9]: 0.78 L/h/kg; Vd [10]: 1.6 L/kg; half-life [11]: 1.6 h; clearance [12]: < 0.12 L/h/kg; Vd [13]: 1.1 L/kg; half-life [14]: 7 h; inhibition in vivo at 5 mg/kg [15]: > 80%; inhibition in vivo at 10 mg/kg [16]: > 90%; inhibition in vivo at 25 mg/kg [17]: > 95%

Source: ChEMBL document CHEMBL1156131, “Discovery of pyrazol-3-ylamino pyrazines as novel JAK2 inhibitors” (Bioorg Med Chem Lett, 2009)
